US10272055B2, “Therapeutic compounds and methods” (Regents of the University of Minnesota, priority 2014, dated 2019)
“Also recorded” adds a separate entry of the source.

Experiments:
MCF7 line = test: 14,15-EET protection against biguanide growth inhibition, MTT, MCF7; format: cell-based; conditions: MCF-7, exogenous (±)-14,15-EET (1 uM)
Method: Cells were plated in complete media in the presence of serum (10% FBS) and cultured at 37° C. with 5% CO2 and treated with biguanides for 24 hours in the presence or absence of 1 uM 14,15-EET. Growth was then measured at 24 hour by MTT assay.

MDA-MB-231 [1] = test: Cell cycle analysis by flow cytometry, MDA-MB-231; format: cell-based; conditions: MDA-MB-231, HBB 20 uM, 6 hours
Method: (§1) Cells in log phase growth treated with HBB (20 uM) or DMSO for 6 hours were trypsinized and fixed in 70% ethanol at 4° C. overnight. The cells were washed with cold PBS and resuspended in Nicoletti buffer (50 μg/ml propidium iodide, 0.1% Triton X-100, 0.1% sodium citrate, pH 7.4, and 1 mg/ml RNase). The samples were then analyzed by flow cytometry (BD Biosciences), and data were analyzed using FlowJo software (Tree Star). Representative profile are shown.

MCF7 [2] = test: ROS production, DCFDA flow cytometry, MCF7; format: cell-based; conditions: MCF7, 20 uM HBB
Method: (§2) FIG. 33 illustrates that HBB induces reactive oxygen species (ROS) production in MCF7 and MDA-MB-231 lines. Cells in log phase growth in complete media were trypsinized and resuspended in complete media containing 20 uM DCFDA. After incubation at 37° C. for 30 minutes, cells were treated with 20 uM HBB or DMSO for 2.5 hours and analyzed by flow cytometer, monitoring fluorescence at 525 nm. Results are represented as histograms of cell count vs fluorescence intensity.

MDA-MB-231 [3] = test: ROS production, DCFDA flow cytometry, MDA-MB-231; format: cell-based; conditions: MDA-MB-231, 20 uM HBB
Method: as §2

MCF-7 = test: HBB plus paclitaxel combination, MTT, Chou-Talalay analysis; format: cell-based; conditions: MCF-7, HBB vs paclitaxel = 800:1, 24 hours
Method: Cells were seeded into 96-well plates at 3,000 cells/well and grown over night. The cells were then treated with different doses of HBB, paclitaxel and combination of the two agents at a constant ratio (HBB vs paclitaxel=800:1). The treatments were conducted for each condition in quadruplicate. […] Combined dose-response curves were fitted to Chou-Talalay lines, and Chou-Talalay combination indices (CIs) were calculated for each fraction affected (Fa) using the equation CI=(D1/Dx1)+(D2/Dx2)+(D1)(D2)/[(Dx1)(Dx2)], where Dx1 and Dx2 are the HBB and paclitaxel doses, respectively, that are required for achieving a particular Fa, and D1 and D2 are the doses of the two agents (combined treatment) required for achieving the same Fa. For each Fa, CI values of 0.8 and 1.2 are cutoffs for synergy and antagonism, respectively (See FIG. 42).

MCF7 [4] = test: Cell cycle analysis by flow cytometry, MCF7; format: cell-based; conditions: MCF7, HBB 20 uM, 6 hours
Method: as §1

CD31 [5] = test: Angiogenesis by CD31 staining, MDA-MB-231 xenograft tumors; format: in vivo, mice; conditions: MDA-MB-231 model, HBB 4 mg/kg/day ip vs PBS
Method: (§3) Xenogaft tumors from the MCF-7 and MDA-MB-231 models were tested for inhibition of angiogenesis by HBB using CD31 staining.
(§4) The samples were cryosectioned at 6 um and fixed with chilled 100% acetone for 10 minutes. Samples were blocked with 3% donkey serum in PBS for 30 minutes at 37 C.
(§5) The antibody used to stain CD-31 was from BD Pharmingen PE Rat anti Mouse CD31, catalog number 553373. It was used at a dilution of 1:50 in blocking buffer for 1 hour at 37 C.
(§6) The samples were then stained for 10 minutes with DAPI at a concentration of 1:2000, from Life Technologies, catalog number D1306.
(§7) Each sample was imaged in 4-5 areas. There were 3 samples per condition, PBS vs HBB.

MCF-7 xenograft = MCF-7 xenograft in nude mice; format: in vivo; conditions: HBB 4 mg/kg ip daily vs PBS/vehicle
Method: FIG. 3A. MCF-7 xenograft with 3×10^6 cells in the 2nd mammary fat pad on day 0. HBB (4 mg/kg ip daily) (ν) or PBS (ρ) treatment began on day 1. * indicates P<0.05. FIG. 3B. MDAMB-231 xenograft with 1×10^6 cells in the 2nd mammary fat pad on day 0. HBB (4 mg/kg ip daily) (ν) or PBS (ρ) treatment began on day 1. N=20 mice per arm for each study; error bars are SEM.
MCF-7 cells were implanted in the mammary fat pad of 4-5 week mice and treatment was initiated when tumor size was ≥15 mm^3 by 2 sequential measurements with randomized assignment to the treatment arms.
FIG. 44A. Nude mice were inoculated with 3×10^6 MCF-7 cells and treated with vehicle (Δ) HBB at the MTD (4 mg/kg/day ip) (▪). (* indicates P<0.05). Error bars are SEM. […] The dose limiting toxicity was weight loss. At the MTD there was a well-tolerated 4% reduction of weight at 42 days (P<0.0001; data not shown). FIG. 44B. Nude mice were inoculated with 1×10^6MDA-MB-231 cells and treated with HBB at the MTD (4 mg/kg/day ip).

[6] = HBB concentration after ip administration, MCF-7 model; set-up: species or system mice; conditions: nude, mouse, in vivo, intraperitoneal, 4 mg/kg/day ip, read-out: Concentration of HBB 1 hour following ip administration
Method: Concentration of HBB 1 hour following ip administration was 0.527 uM as measured in the MCF-7 model. HBB was administered ip at 4 mg/kg/day in both models, which is the MTD for that dose, route and schedule.

CD31 [7] = test: Angiogenesis by CD31 staining, MCF-7 xenograft tumors; format: in vivo, mice; conditions: MCF-7 model, HBB 4 mg/kg/day ip vs PBS
Method: as §3, §4, §5, §6, §7

AMPK = AMPK phosphorylation Western blot in MCF7; format: cell-based
Method: Western blotting analysis was performed in triplicate.
Cells were plated in complete media in the presence of serum (10% FBS) and cultured at 37° C. with 5% CO2 and treated with biguanides for 6 hours before harvesting. Total protein was extracted and analyzed by Western-blotting with GAPDH as an internal control.
Cells were plated in complete media in the presence of serum (10% FBS) and cultured at 37° C. with 5% CO2 and treated with 14,15-EET or EtOH control for 24 hours before harvesting. Total protein was extracted and analyzed by Western-blotting with GAPDH as an internal control.

STAT3 = STAT3 phosphorylation Western blot in MCF7; format: cell-based
Method: Western blotting analysis was performed (C=control, M=metform and H=HBB).
Total protein was extracted and analyzed by Western-blotting with GAPDH as an internal control.

CCCCCCNC(=N)NC(=N)NCc1ccccc1 [HBB, N1-hexyl-N5-benzyl biguanide]
rescue of MCF-7 growth by 14,15-EET in the presence of the biguanide (MCF7 line): partially restores growth; also recorded: partial rescue
cell cycle arrest (MDA-MB-231 [1]): induces G0/G1 and G2/M cell cycle arrest
ROS production relative to DMSO (MCF7 [2]): induced significant ROS production
ROS production relative to DMSO (MDA-MB-231 [3]): induced significant ROS production
combination index plot, HBB with Taxol (MCF-7): synergy
cell cycle arrest (MCF7 [4]): induces G0/G1 and G2/M cell cycle arrest
angiogenesis (CD31 staining) (CD31 [5]): inhibited angiogenesis in both models
tumor growth, MCF-7 xenograft (MCF-7 xenograft): significant reduction in early engraftment/tumor growth; also recorded: only in the MCF-7 model; also recorded: inhibits the ER+ MCF-7
concentration at 1 h [6]: 527 nM
angiogenesis (CD31 staining) (CD31 [7]): inhibited angiogenesis in both models
AMPK phosphorylation relative to control (AMPK; MCF7, 6 hours, metformin, buformin, phenformin 1 mM, HBB 20 uM): more potently activates AMPK; also recorded: increased phosphorylation of AMPK
fold more potent than metformin, activation of AMPK phosphorylation (AMPK; vs metformin): ~50 fold
STAT3 phosphorylation relative to control (STAT3; MCF7, 6 hours, HBB 20 uM, metformin 10 uM): decreased phosphorylation of STAT3
fold more potent than metformin, inhibition of Stat3 phosphorylation (STAT3; vs metformin): ~50 fold
